In patent publication US20020013324A1, “N-substituted imide derivatives with serotonergic activity” (American Home Products Corporation, priority 1999, published 2002) one finds melting point and IC50 data, which are given here for 16 compounds.

Counter-ions that a name gives are not always drawn.

Tested on in one series: not given
Experiment: not given
Conditions: not given
With `COc1ccc(C[C@H](CN2CCN(c3ccccc3OC)CC2)N(C(=O)C2CCCCC2)C(=O)C2CCCCC2)cc1` (as salt: hydrochloride) [Example 11, (R)-Cyclohexanecarboxylic acid cyclohexanecarbonyl-{1-(4-methoxybenzyl)-2-[4-(2-methoxyphenyl)-piperazin-1-yl]-etlyl}-amide hydrochloride], the melting point lay in the range of 106 to 108 °C.
Same read-out and setting: in the case of `COc1ccccc1N1CCN(C[C@@H](Cc2cn(C)c3ccccc23)N(C(=O)C2CCCCC2)C(=O)C2CCCCC2)CC1.Cl.O` (hydrate or solvate) [Example 12, (R)-Cyclohexanecarboxylic acid cyclohexanecarbonyl-{1-[4-(2-methoxyphenyl)-piperazin-1-ylmethyl]-2-(1-methyl-1H-indol-3-yl)ethyl}-amide hydrochloride monohydrate] it was 136 to 138 °C; in that of `O=C(C1CCCCC1)N(CCN1CCN(c2cccc3c2OCCO3)CC1)C(=O)C1CCCCC1` (as salt: hydrochloride) (hydrate or solvate) [Example 8, Cyclohexanecarboxylic acid cyclohexanecarbonyl-{2-[4-(2,3-dihydro-benzo[1,4]-dioxin)-5-yl}-piperazin-1-yl]-ethyl}-amide sesquihydrochloride monohydrate], 148 to 149 °C.
For the compound `O=C(c1ccccc1)N(CCN1CCN(c2cccc3c2OCCO3)CC1)C(=O)C1CCCCC1` (as salt: hydrochloride) (hydrate or solvate) [Example 14, Cyclohexanecarboxylic acid benzoyl-{2-[4-(2,3-dihydro-benzo[1,4]dioxin-5-yl)-1-piperazin-1-ylethyl]-amide hydrochloride sesquihydrate], the melting point fell in the range of 169 to 171 °C.
As for `COc1ccccc1N1CCN(C[C@@H](C)N(C(=O)c2ccccc2)C(=O)c2ccccc2)CC1` (as salt: fumarate) (hydrate or solvate) [Example 16, (R)-N-Benzoyl-N-{1-methyl-2-[4-(2-methoxyphenyl)-piperazin-1-yl]-ethyl}-benzamide semifumarate-hemihydrate], the melting point was in the range of 115 to 120 °C.
Same read-out and setting: in the case of `COc1ccccc1N1CCN(C[C@@H](Cc2ccccc2)N(C(=O)C2CCCCC2)C(=O)C2CCCCC2)CC1` (as salt: fumarate) [Example 10, (R)-Cyclohexanecarboxylic acid cyclohexanecarbonyl-{1-benzyl)-2-[4-(2-methoxy-phenyl)-piperazin-1yl]-ethyl}-amide fumarate] it was 146 to 147 °C; in that of `Cl.Cl.O=C(C1CCCCC1)N(CCN1CCN(c2cccc3[nH]ccc23)CC1)C(=O)C1CCCCC1` [Example 7, Cyclohexanecarboxylic acid cyclohexanecarbonyl-{2-[4-(1H-indol-4-yl)-piperazin-1-yl]-ethyl}-amide dihydrochloride], 144 to 146 °C; in that of `COc1ccccc1N1CCN(CCN(C(=O)C2CCCCC2)C(=O)C2CCCCC2)CC1.Cl.Cl` [Example 6, Cyclohexanecarboxylic acid cyclohexanecarbonyl-{2-[4-(2-methoxyphenyl)-piperazin-1-yl]-ethyl}-amide dihydrochloride], 159 to 160 °C.

The target of a further series is T1, human 5-HT1A receptor (Homo sapiens, UniProt P08908).
T1 construct: expressed in transfected cells; host or cells: CHO cells (stably transfected)
T1 sequence (P08908 1-422): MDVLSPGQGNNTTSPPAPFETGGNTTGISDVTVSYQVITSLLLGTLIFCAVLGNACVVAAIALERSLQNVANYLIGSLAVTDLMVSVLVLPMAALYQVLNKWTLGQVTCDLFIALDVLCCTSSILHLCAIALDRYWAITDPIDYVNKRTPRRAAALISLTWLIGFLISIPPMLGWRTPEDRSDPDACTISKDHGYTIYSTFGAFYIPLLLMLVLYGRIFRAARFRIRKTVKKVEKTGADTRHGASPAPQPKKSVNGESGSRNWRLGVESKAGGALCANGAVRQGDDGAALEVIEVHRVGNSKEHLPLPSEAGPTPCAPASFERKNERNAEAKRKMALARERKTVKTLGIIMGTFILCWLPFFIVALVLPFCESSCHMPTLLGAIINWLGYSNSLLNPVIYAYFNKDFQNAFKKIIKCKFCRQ
In words: Displacement of [3H]8-OH-DPAT from the 5-HT1A receptor in transfected CHO cells. Conditions: [3H]-8-OH-DPAT 1.5 nM; CHO cells with human 5-HT1A receptor; nonspecific binding with 10 μM 5-HT; room temperature; read-out: 5-HT1A Affinity (IC50). An excerpt:
Affinity for the serotonin 5-HT1A receptor was established by assaying the test compound's ability to displace [3H]8-OHDPAT (dipropylaminotetralin) from its binding site on the receptor complex in CHO cells stably transfected with the human 5-HT1A receptor following a variation of a procedure of J. Zgombick et al., Naunyn-Schmiedeberg's Arch. Pharmacol., 354, 226-236 (1996), as described by J. Dunlop, Y. Zhang, D. L. Smith and L. E. Schechter, Journal of Pharmacological and Toxicological Methods 40, 47-55 (1998). The variation includes: the use of cells containing clonal human 5-HT1A receptor in place of 5-HT1D receptor; the use of [3H]-8-OH-DPAT (1.5 nM) as radioligand in place of [3H]-LSD; nonspecific binding determined with 10 μM 5-HT; and the test procedure was run at room temperature rather than 37° C.
For the compound `O=C(c1ccccc1)N(CCN1CCN(c2cccc3c2OCCO3)CC1)C(=O)C1CCCCC1` [Example 14, Cyclohexanecarboxylic acid benzoyl-{2-[4-(2,3-dihydro-benzo[1,4]dioxin-5-yl)-1-piperazin-1-ylethyl]-amide hydrochloride sesquihydrate], the half-maximal inhibitory concentration (IC50) was 5.13 nM.
On the same count and under the same terms, for `COc1ccccc1N1CCN(C[C@@H](Cc2cn(C)c3ccccc23)N(C(=O)C2CCCCC2)C(=O)C2CCCCC2)CC1` [Example 12, (R)-Cyclohexanecarboxylic acid cyclohexanecarbonyl-{1-[4-(2-methoxyphenyl)-piperazin-1-ylmethyl]-2-(1-methyl-1H-indol-3-yl)ethyl}-amide hydrochloride monohydrate] the value was 0.78 nM; for `COc1ccccc1N1CCN(C[C@@H](Cc2ccccc2)N(C(=O)C2CCCCC2)C(=O)C2CCCCC2)CC1` [Example 10, (R)-Cyclohexanecarboxylic acid cyclohexanecarbonyl-{1-benzyl)-2-[4-(2-methoxy-phenyl)-piperazin-1yl]-ethyl}-amide fumarate], 61 nM.
Still for that read-out and setting: in the case of `COc1ccccc1N1CCN(C[C@@H](C)N(C(=O)c2ccccc2)C(=O)c2ccccc2)CC1` [Example 16, (R)-N-Benzoyl-N-{1-methyl-2-[4-(2-methoxyphenyl)-piperazin-1-yl]-ethyl}-benzamide semifumarate-hemihydrate] it was 79.6 nM.
Take “(R)-Cyclohexanecarboxylic acid cyclohexanecarbonyl-{1-methyl-2-[4-(2-methoxyphenyl)-piperazin-2-yl]-ethyl}-amide fumarate [Example 9]”: the IC50 worked out at 2.69 nM.
Same read-out and setting: for `Cl.Cl.O=C(C1CCCCC1)N(CCN1CCN(c2cccc3[nH]ccc23)CC1)C(=O)C1CCCCC1` [Example 7, Cyclohexanecarboxylic acid cyclohexanecarbonyl-{2-[4-(1H-indol-4-yl)-piperazin-1-yl]-ethyl}-amide dihydrochloride] the value was 4.55 nM; for `COc1ccccc1N1CCN(CCN(C(=O)c2ccccc2)C(=O)c2ccccc2)CC1` [Example 15, N-Benzoyl-N-{-2-[4-(2-methoxyphenyl)-piperazin-1-yl]-ethyl}-benzamide hydrochloride hemihydrate], 23.4 nM; for `COc1ccc(C[C@H](CN2CCN(c3ccccc3OC)CC2)N(C(=O)C2CCCCC2)C(=O)C2CCCCC2)cc1` [Example 11, (R)-Cyclohexanecarboxylic acid cyclohexanecarbonyl-{1-(4-methoxybenzyl)-2-[4-(2-methoxyphenyl)-piperazin-1-yl]-etlyl}-amide hydrochloride], 0.38 nM.
On the same count and under the same terms, for `COc1ccccc1N1CCN(CCN(C(=O)C2CCCCC2)C(=O)C2CCCCC2)CC1.Cl.Cl` [Example 6, Cyclohexanecarboxylic acid cyclohexanecarbonyl-{2-[4-(2-methoxyphenyl)-piperazin-1-yl]-ethyl}-amide dihydrochloride] the value was 3.1 nM.
Same read-out and setting: in the case of `O=C(C1CCCCC1)N(CCN1CCN(c2cccc3c2OCCO3)CC1)C(=O)C1CCCCC1` [Example 8, Cyclohexanecarboxylic acid cyclohexanecarbonyl-{2-[4-(2,3-dihydro-benzo[1,4]-dioxin)-5-yl}-piperazin-1-yl]-ethyl}-amide sesquihydrochloride monohydrate] it was 4.77 nM.
